Measurements taken from patent US9090538B2, “Uses of esteramide compounds” (priority 2010, dated 2015).

Experiments:
Format in all cases: physicochemical
Parameters in all cases: key: Crystal: When the formation of active crystals is observed, the term of <> is indicated; Limpid: When the solution remains limpid (absence of solid or cloudiness), it is the term of <> which is indicated
[1] = Visual observation at 25° C. of formulation of active in solvent
Description: (§1) Formulations were made by diluting various actives, reported below in the table, in the compounds 1-4 synthesized above.
1) Visual observation at 25° C.
The aspect of the formulation is noted and the presence of crystals is possibly located.
(§2) The actives used are commercially available.

[2] = Visual observation at 0° C. after 7 days (CIPAC MT39 test); conditions: 7 days at 0° C.
Description: as §1
2) Visual observation at 0° C.
The formulation is placed at 0° C. for 7 days and the aspect of the formulation is noted and the presence of crystals is possibly located (CIPAC MT39 test).
as §2

[3] = Visual observation at 0° C. with nucleation (crystal of pure active introduced, 7 more days at 0° C.); conditions: crystal of active added
Description: as §1
3) Visual observation at 0° C. with nucleation (by introducing a crystal of the pure active into the liquid)
A crystal of the active material is introduced into the formulation which has spent 7 days at 0° C. for nucleation, and the formulation is again placed for 7 days at 0° C. The aspect of the formulation is noted and the presence of crystals or the growth of the introduced crystal is possibly located.
as §2

[4] = active Alachlor 48% EC in the compound as solvent
[5] = active Azoxystrobine 25% EC in the compound as solvent
[6] = active Difenconazole 25% EC in the compound as solvent
[7] = active Dimethoate 40% EC in the compound as solvent
[8] = active Oxyfluorfen 22% EC in the compound as solvent
[9] = active Pendimethalin 33% EC in the compound as solvent
[10] = active Phenmedipham 16% EC in the compound as solvent
[11] = active Propanil 36% EC in the compound as solvent
[12] = active Propuxur 20% EC in the compound as solvent
[13] = active Tebuconazole 25% EC in the compound as solvent
[14] = active Trifluralin 40% EC in the compound as solvent
[15] = active alpha-Cypermethrin 10% EC in the compound as solvent
[16] = active Chlorpyrifos 40% EC in the compound as solvent

Compound | Aspect at 25° C. [1, 4] | Aspect at 25° C. [1, 6] | Aspect at 25° C. [1, 7] | Aspect at 25° C. [1, 8] | Aspect at 25° C. [1, 9] | Aspect at 25° C. [1, 11] | Aspect at 25° C. [1, 12] | Aspect at 25° C. [1, 14] | Aspect at 25° C. [1, 15] | Aspect at 0° C. [2, 4] | Aspect at 0° C. [2, 6] | Aspect at 0° C. [2, 7] | Aspect at 0° C. [2, 8] | Aspect at 0° C. [2, 9] | Aspect at 0° C. [2, 11] | Aspect at 0° C. [2, 12] | Aspect at 0° C. [2, 14] | Aspect at 0° C. [2, 15] | Aspect at 0° C. with nucleation [3, 4] | Aspect at 0° C. with nucleation [3, 6] | also measured
COC(=O)C(=O)N(C)C [Compound 1, methyl 2-(dimethylamino)-2-oxoacetate] | Limpid | Limpid | Limpid | Limpid | Limpid | Limpid | Limpid | Limpid | Limpid | Limpid | Limpid | Crystal | Crystal | Crystal | Limpid | Limpid | Crystal | Limpid | Limpid | Limpid | Aspect at 25° C. [1, 5]: Limpid; Aspect at 25° C. [1, 10]: Limpid; Aspect at 25° C. [1, 13]: Limpid; Aspect at 0° C. [2, 5]: Crystal; Aspect at 0° C. [2, 10]: Limpid; Aspect at 0° C. [2, 13]: Crystal; Aspect at 0° C. with nucleation [3, 10]: Limpid; Aspect at 0° C. with nucleation [3, 11]: Limpid; Aspect at 0° C. with nucleation [3, 12]: Limpid; Aspect at 0° C. with nucleation [3, 15]: Limpid
CCOC(=O)C(=O)N(C)C [Compound 2, ethyl 2-(dimethylamino)-2-oxoacetate] | Limpid | Limpid | Limpid | Limpid | Limpid | Limpid | Limpid | Limpid | Limpid | Limpid | Limpid | Limpid | Limpid | Crystal | Limpid | Crystal | Limpid | Limpid | Limpid | Limpid | Aspect at 25° C. [1, 5]: Limpid; Aspect at 25° C. [1, 16]: Limpid; Aspect at 25° C. [1, 10]: Limpid; Aspect at 25° C. [1, 13]: Limpid; Aspect at 0° C. [2, 5]: Crystal; Aspect at 0° C. [2, 16]: Limpid; Aspect at 0° C. [2, 10]: Limpid; Aspect at 0° C. [2, 13]: Crystal; Aspect at 0° C. with nucleation [3, 16]: Limpid; Aspect at 0° C. with nucleation [3, 7]: Crystal; Aspect at 0° C. with nucleation [3, 8]: Limpid; Aspect at 0° C. with nucleation [3, 10]: Limpid; Aspect at 0° C. with nucleation [3, 11]: Limpid; Aspect at 0° C. with nucleation [3, 14]: Limpid; Aspect at 0° C. with nucleation [3, 15]: Limpid
CCCCC(CC)COC(=O)C(=O)N(C)C (centres unmarked) [Compound 3, 2-ethyl-hexyl 2-(dimethylamino)-2-oxoacetate] | Limpid | Limpid | Limpid | Limpid | Limpid | Limpid | Limpid | Limpid | Limpid | Limpid | Limpid | Crystal | Limpid | Crystal | Limpid | Crystal | Limpid | Limpid | Limpid | Limpid | Aspect at 25° C. [1, 16]: Limpid; Aspect at 0° C. [2, 16]: Limpid; Aspect at 0° C. with nucleation [3, 16]: Limpid; Aspect at 0° C. with nucleation [3, 8]: Crystal; Aspect at 0° C. with nucleation [3, 11]: Limpid; Aspect at 0° C. with nucleation [3, 14]: Limpid; Aspect at 0° C. with nucleation [3, 15]: Limpid
CCCCCCCCCCOC(=O)C(=O)N(C)C [Compound 4, n-decyl 2-(dimethylamino)-2-oxoacetate] | Limpid | Limpid |  | Limpid |  | Limpid |  | Limpid |  | Limpid | Limpid |  | Crystal |  | Crystal |  | Limpid |  | Limpid | Limpid | Aspect at 25° C. [1, 16]: Limpid; Aspect at 0° C. [2, 16]: Crystal; Aspect at 0° C. with nucleation [3, 14]: Limpid
